What was measured:
Format in all cases: cell-based
[1] = tested on: KRAS G12D mutant human pancreatic cancer cell HPAC; test: 3D cell proliferation inhibition assay, HPAC; details: 168 h, 7 days, CTG
In short: (§1)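 Compound dilutions are added to low-adsorption wells, then cells at 5×10^2 cells/well. Final compound range is 10000–0.026 nM, with 0.2% DMSO. After 7 days at 37 °C with 5% CO2, CTG reagent is added and luminescence is read 60 min later. IC50 is fitted from inhibition relative to DMSO and medium controls.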

KRAS-G12D [2] = target: T1, KRAS-G12D (Homo sapiens, UniProt P01116, G12D); test: KRAS-G12D degradation assay (Western Blot), Panc 04.03 cells; details: 24 h
T1 construct: endogenous in cells; host or cells: A-427 (ATCC), AGS, AsPc-1, Panc 04.03
T1 sequence (P01116 1-188 isoform P01116-2 G12D): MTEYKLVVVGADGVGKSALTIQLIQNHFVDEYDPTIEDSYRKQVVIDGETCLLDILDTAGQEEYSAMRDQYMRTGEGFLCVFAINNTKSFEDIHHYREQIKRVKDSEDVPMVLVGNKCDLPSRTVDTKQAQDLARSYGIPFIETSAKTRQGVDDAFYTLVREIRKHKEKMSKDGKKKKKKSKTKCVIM
In short: (§2)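 Western blotting of lysates (5 μg protein) quantified KRAS against a β-actin reference after 24 h exposure to compound at final 0.03–3000 nM in 0.25% DMSO. Cells were A-427, AGS, AsPc-1 or Panc 04.03, all KRAS G12D, at 5×10^5/well. Degradation versus control yielded DC50 and Dmax.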

KRAS-G12D [3] = target: T1, KRAS-G12D; test: KRAS-G12D degradation assay (Western Blot), AGS cells; details: 24 h
In short: as §2

KRAS-G12D [4] = target: T1, KRAS-G12D; test: KRAS-G12D degradation assay (Western Blot), A-427 cells; details: A427 cells, 24 h, class symbols; for Dmax: A-427
In short: as §2

KRAS-G12D [5] = target: T1, KRAS-G12D; test: KRAS-G12D degradation assay (Western Blot), AsPc-1 cells; details: for DC50: 24 h; for Dmax: ASPC1, 24 h
In short: as §2

[6] = tested on: KRAS G12D mutant human pancreatic cancer cell Panc 04.03; test: 3D cell proliferation inhibition assay, Panc 04.03; details: 168 h, Panc 04.03, 7 days, CTG, numeric values
In short: as §1

SMILES	IC50 [1] [nM]	DC50 (KRAS-G12D [2]) [nM]	Dmax (KRAS-G12D [2]) [%]	DC50 (KRAS-G12D [3]) [nM]	Dmax (KRAS-G12D [3]) [%]	DC50 (KRAS-G12D [4]) [nM]	Dmax (KRAS-G12D [4]) [%]	DC50 (KRAS-G12D [5]) [nM]	Dmax (KRAS-G12D [5]) [%]	IC50 [6] [nM]
C#Cc1c(F)ccc2cc(O)cc(-c3ncc4c(N5CC6CCC(C5)N6)nc(OCC5(CN6CCN(CC7CCC8(CC7)CCN(C(=O)c7ccc(Cl)c(N9CCC(=O)NC9=O)c7)CC8)CC6)CC5)nc4c3F)c12 [Example 6, 1-(5-(9-((4-((1-(((4-(3,8-diazabicyclo[3.2.1]octan-3-yl)-7-(8-ethynyl-7-fluoro-3-hydroxynaphthalen-1-yl)-8-fluoropyrido[4,3-d]pyrimidin-2-yl)oxy)methyl)cyclopropyl)methyl)piperazin-1-yl)methyl)-3-azaspiro[5.5]undecane-3-carbonyl)-2-chlorophenyl)dihydropyrimidine-2,4(1H,3H)-dione]	5.35	21.7	99.9	7.91	100	≤ 50	80 to 100	2.9	100	–
C#Cc1c(F)ccc2cc(O)cc(-c3ccc4c(N5CC6CCC(C5)N6)nc(OCC5(CN6CCN(CC7CCC8(CC7)CCN(C(=O)c7ccc(C)c(N9CCC(=O)NC9=O)c7)CC8)CC6)CC5)nc4c3F)c12 [Example 42, 1-(5-(9-((4-((1-(((4-(3,8-diazabicyclo[3.2.1]octan-3-yl)-7-(8-ethynyl-7-fluoro-3-hydroxynaphthalen-1-yl)-8-fluoroquinazolin-2-yl)oxy)methyl)cyclopropyl)methyl)piperazin-1-yl)methyl)-3-azaspiro[5.5]undecane-3-carbonyl)-2-methylphenyl)dihydropyrimidine-2,4(1H,3H)-dione]	2.96	7.46	100	11.8	77.4	≤ 50	80 to 100	0.22	100	8.41
C#Cc1c(F)ccc2cc(O)cc(-c3ncc4c(N5CC6CCC(C5)N6)nc(OCC5(CN6CCN(CCCCC7CCC8(CC7)CCN(C(=O)c7ccc(Cl)c(N9CCC(=O)NC9=O)c7)CC8)CC6)CC5)nc4c3F)c12 [Example 31, 1-(5-(9-(4-(4-((1-(((4-(3,8-diazabicyclo[3.2.1]octan-3-yl)-7-(8-ethynyl-7-fluoro-3-hydroxynaphthalen-1-yl)-8-fluoropyrido[4,3-d]pyrimidin-2-yl)oxy)methyl)cyclopropyl)methyl)piperazin-1-yl)butyl)-3-azaspiro[5.5]undecane-3-carbonyl)-2-chlorophenyl)dihydropyrimidine-2,4(1H,3H)-dione]	–	–	–	–	–	≤ 50	80 to 100	–	–	22.2
C#Cc1c(F)ccc2cc(O)cc(-c3ncc4c(N5CC6CCC(C5)N6)nc(OCC5(CN6CCN(CC7CCC8(CC7)CCN(C(=O)c7ccc(C)c(N9CCC(=O)NC9=O)c7)CC8)CC6)CC5)nc4c3F)c12 [Example 36, 1-(5-(9-((4-((1-(((4-(3,8-diazabicyclo[3.2.1]octan-3-yl)-7-(8-ethynyl-7-fluoro-3-hydroxynaphthalen-1-yl)-8-fluoropyrido[4,3-d]pyrimidin-2-yl)oxy)methyl)cyclopropyl)methyl)piperazin-1-yl)methyl)-3-azaspiro[5.5]undecane-3-carbonyl)-2-methylphenyl)dihydropyrimidine-2,4(1H,3H)-dione]	1.19	–	–	–	–	≤ 50	80 to 100	–	–	–
CCc1cccc2cc(O)cc(-c3ncc4c(N5CC6CCC(C5)N6)nc(OCC5(CN6CCN(CC7CCC8(CC7)CCN(C(=O)c7ccc(OC)c(N9CCC(=O)NC9=O)c7)CC8)CC6)CC5)nc4c3F)c12 [Example 20, 1-(5-(9-((4-((1-(((4-(3,8-diazabicyclo[3.2.1]octan-3-yl)-7-(8-ethyl-3-hydroxynaphthalen-1-yl)-8-fluoropyrido[4,3-d]pyrimidin-2-yl)oxy)methyl)cyclopropyl)methyl)piperazin-1-yl)methyl)-3-azaspiro[5.5]undecane-3-carbonyl)-2-methoxyphenyl)dihydropyrimidine-2,4(1H,3H)-dione]	–	15.1	100	19.9	100	≤ 50	80 to 100	0.57	100	10.5
C#Cc1c(F)ccc2cc(O)cc(-c3ncc4c(N5CC6CCC(C5)N6)nc(OCC(C)(C)CN5CCN(CC6CCC7(CC6)CCN(C(=O)c6ccc(OC)c(N8CCC(=O)NC8=O)c6)CC7)CC5)nc4c3F)c12 [Example 26, 1-(5-(9-((4-(3-((4-(3,8-diazabicyclo[3.2.1]octan-3-yl)-7-(8-ethynyl-7-fluoro-3-hydroxynaphthalen-1-yl)-8-fluoropyrido[4,3-d]pyrimidin-2-yl)oxy)-2,2-dimethylpropyl)piperazin-1-yl)methyl)-3-azaspiro[5.5]undecane-3-carbonyl)-2-methoxyphenyl)dihydropyrimidine-2,4(1H,3H)-dione]	–	–	–	–	–	1000 to 10000	30 to 50	–	–	–
C#Cc1c(F)ccc2cc(O)cc(-c3ncc4c(N5CC6CCC(C5)N6)nc(OCC(C)(C)CN5CCN(CCCC6CCN(C(=O)c7ccc(Cl)c(N8CCC(=O)NC8=O)c7)CC6)CC5)nc4c3F)c12 [Example 23, 1-(5-(4-(3-(4-(3-((4-(3,8-diazabicyclo[3.2.1]octan-3-yl)-7-(8-ethynyl-7-fluoro-3-hydroxynaphthalen-1-yl)-8-fluoropyrido[4,3-d]pyrimidin-2-yl)oxy)-2,2-dimethylpropyl)piperazin-1-yl)propyl)piperidine-1-carbonyl)-2-chlorophenyl)dihydropyrimidine-2,4(1H,3H)-dione]	–	–	–	–	–	1000 to 10000	30 to 50	–	–	–
C#Cc1c(F)ccc2cc(O)cc(-c3ncc4c(N5CC6CCC(C5)N6)nc(OCC5(CN6CCN(CCCC7CCC8(CC7)CCN(C(=O)c7ccc(Cl)c(N9CCC(=O)NC9=O)c7)CC8)CC6)CC5)nc4c3F)c12 [Example 7, 1-(5-(9-(3-(4-((1-(((4-(3,8-diazabicyclo[3.2.1]octan-3-yl)-7-(8-ethynyl-7-fluoro-3-hydroxynaphthalen-1-yl)-8-fluoropyrido[4,3-d]pyrimidin-2-yl)oxy)methyl)cyclopropyl)methyl)piperazin-1-yl)propyl)-3-azaspiro[5.5]undecane-3-carbonyl)-2-chlorophenyl)dihydropyrimidine-2,4(1H,3H)-dione]	–	–	–	–	–	≤ 50	80 to 100	–	–	–
C#Cc1c(F)ccc2cc(O)cc(-c3ncc4c(N5CC6CCC(C5)N6)nc(OCC5(CN6CCC(COCCC7CCN(C(=O)c8ccc(Cl)c(N9CCC(=O)NC9=O)c8)CC7)CC6)CC5)nc4c3F)c12 [Example 21, 1-(5-(4-(2-((1-((1-(((4-(3,8-diazabicyclo[3.2.1]octan-3-yl)-7-(8-ethynyl-7-fluoro-3-hydroxynaphthalen-1-yl)-8-fluoropyrido[4,3-d]pyrimidin-2-yl)oxy)methyl)cyclopropyl)methyl)piperidin-4-yl)methoxy)ethyl)piperidine-1-carbonyl)-2-chlorophenyl)dihydropyrimidine-2,4(1H,3H)-dione]	–	–	–	–	–	≤ 50	80 to 100	–	–	–
C#Cc1c(F)ccc2cc(O)cc(-c3ncc4c(N5CC6CCC(C5)N6)nc(OCC5(CN6CCC(COCC7CCN(C(=O)c8ccc(Cl)c(N9CCC(=O)NC9=O)c8)CC7)CC6)CC5)nc4c3F)c12 [Example 13, 1-(5-(4-(((1-((1-(((4-(3,8-diazabicyclo[3.2.1]octan-3-yl)-7-(8-ethynyl-7-fluoro-3-hydroxynaphthalen-1-yl)-8-fluoropyrido[4,3-d]pyrimidin-2-yl)oxy)methyl)cyclopropyl)methyl)piperidin-4-yl)methoxy)methyl)piperidine-1-carbonyl)-2-chlorophenyl)dihydropyrimidine-2,4(1H,3H)-dione]	–	–	–	–	–	50 to 100	50 to 80	–	–	–
CCc1c(F)ccc2cc(O)cc(-c3ncc4c(N5CC6CCC(C5)N6)nc(OCC5(CN6CCN(CCCC7CCN(C(=O)c8ccc(Cl)c(N9CCC(=O)NC9=O)c8)CC7)CC6)CC5)nc4c3F)c12 [Example 22, 1-(5-(4-(3-(4-((1-(((4-(3,8-diazabicyclo[3.2.1]octan-3-yl)-7-(8-ethyl-7-fluoro-3-hydroxynaphthalen-1-yl)-8-fluoropyrido[4,3-d]pyrimidin-2-yl)oxy)methyl)cyclopropyl)methyl)piperazin-1-yl)propyl)piperidine-1-carbonyl)-2-chlorophenyl)dihydropyrimidine-2,4(1H,3H)-dione]	–	–	–	–	–	≤ 50	50 to 80	–	–	–
C#Cc1c(F)ccc2cc(O)cc(-c3ncc4c(N5CC6CCC(C5)N6)nc(OCC5(CN6CCN(CCCC7CCN(C(=O)c8ccc(OC)c(N9CCC(=O)NC9=O)c8)CC7)CC6)CC5)nc4c3F)c12 [Example 8, 1-(5-(4-(3-(4-((1-(((4-(3,8-diazabicyclo[3.2.1]octan-3-yl)-7-(8-ethynyl-7-fluoro-3-hydroxynaphthalen-1-yl)-8-fluoropyrido[4,3-d]pyrimidin-2-yl)oxy)methyl)cyclopropyl)methyl)piperazin-1-yl)propyl)piperidine-1-carbonyl)-2-methoxyphenyl)dihydropyrimidine-2,4(1H,3H)-dione]	–	–	–	–	–	≤ 50	50 to 80	–	–	–
C#Cc1c(F)ccc2cc(O)cc(-c3ncc4c(N5CC6CCC(C5)N6)nc(OCC5(CN6CCC(CCOCC7CCN(C(=O)c8ccc(Cl)c(N9CCC(=O)NC9=O)c8)CC7)CC6)CC5)nc4c3F)c12 [Example 10]	–	–	–	–	–	≤ 50	80 to 100	–	–	–

Reference: US20260166159A1, “KRAS G12D DEGRADATION AGENT, AND PREPARATION METHOD AND USE THEREFOR” (LEADINGTAC PHARMACEUTICAL (SHAOXING) CO., LTD., priority 2022, published 2026)
